Source: ChEMBL document CHEMBL4390691, “Discovery of 1,3-dihydro-2H-imidazo[4,5-c]quinolin-2-ones based novel, potent and PI3Kδ selective inhibitors” (Bioorg Med Chem Lett, 2019)

Assays:
[1] = target: T1, Phosphatidylinositol 4,5-bisphosphate 3-kinase catalytic subunit delta isoform (Homo sapiens, UniProt O00329); experiment: Inhibition of human PI3Kdelta using PIP2 as substrate after 1 hr
T1 sequence (O00329 whole entry): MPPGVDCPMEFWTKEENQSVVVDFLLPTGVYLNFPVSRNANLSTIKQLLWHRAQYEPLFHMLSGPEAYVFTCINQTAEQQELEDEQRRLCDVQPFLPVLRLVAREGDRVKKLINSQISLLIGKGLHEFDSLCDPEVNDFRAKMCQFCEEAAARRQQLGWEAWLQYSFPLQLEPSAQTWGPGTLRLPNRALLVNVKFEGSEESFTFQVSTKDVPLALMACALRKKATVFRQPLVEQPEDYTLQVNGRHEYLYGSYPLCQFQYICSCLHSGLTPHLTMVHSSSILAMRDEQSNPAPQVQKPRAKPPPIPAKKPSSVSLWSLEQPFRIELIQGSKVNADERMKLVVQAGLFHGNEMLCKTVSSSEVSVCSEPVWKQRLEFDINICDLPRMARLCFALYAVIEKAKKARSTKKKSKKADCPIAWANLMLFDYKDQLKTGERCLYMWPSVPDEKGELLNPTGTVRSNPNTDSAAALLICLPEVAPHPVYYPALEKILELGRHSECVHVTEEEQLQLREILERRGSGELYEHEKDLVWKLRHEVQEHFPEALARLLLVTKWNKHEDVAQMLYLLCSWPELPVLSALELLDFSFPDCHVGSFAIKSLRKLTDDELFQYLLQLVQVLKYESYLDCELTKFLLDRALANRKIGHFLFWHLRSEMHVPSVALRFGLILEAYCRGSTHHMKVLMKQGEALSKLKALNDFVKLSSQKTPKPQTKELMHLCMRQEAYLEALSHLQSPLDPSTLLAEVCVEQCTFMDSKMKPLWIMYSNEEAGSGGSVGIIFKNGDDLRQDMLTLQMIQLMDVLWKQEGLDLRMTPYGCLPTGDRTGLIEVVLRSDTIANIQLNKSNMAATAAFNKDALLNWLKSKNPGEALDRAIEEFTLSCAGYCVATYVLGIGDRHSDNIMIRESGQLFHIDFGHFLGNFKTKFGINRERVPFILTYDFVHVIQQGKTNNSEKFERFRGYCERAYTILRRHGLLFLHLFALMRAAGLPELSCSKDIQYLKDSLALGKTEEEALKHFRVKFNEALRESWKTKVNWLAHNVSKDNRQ

[2] = target: Phosphatidylinositol 4,5-bisphosphate 3-kinase catalytic subunit gamma isoform (Homo sapiens, UniProt P48736); experiment: Inhibition of human PI3Kgamma using PIP2 as substrate after 1 hr
Chain of Phosphatidylinositol 4,5-bisphosphate 3-kinase catalytic subunit gamma isoform (P48736 whole entry, canonical isoform): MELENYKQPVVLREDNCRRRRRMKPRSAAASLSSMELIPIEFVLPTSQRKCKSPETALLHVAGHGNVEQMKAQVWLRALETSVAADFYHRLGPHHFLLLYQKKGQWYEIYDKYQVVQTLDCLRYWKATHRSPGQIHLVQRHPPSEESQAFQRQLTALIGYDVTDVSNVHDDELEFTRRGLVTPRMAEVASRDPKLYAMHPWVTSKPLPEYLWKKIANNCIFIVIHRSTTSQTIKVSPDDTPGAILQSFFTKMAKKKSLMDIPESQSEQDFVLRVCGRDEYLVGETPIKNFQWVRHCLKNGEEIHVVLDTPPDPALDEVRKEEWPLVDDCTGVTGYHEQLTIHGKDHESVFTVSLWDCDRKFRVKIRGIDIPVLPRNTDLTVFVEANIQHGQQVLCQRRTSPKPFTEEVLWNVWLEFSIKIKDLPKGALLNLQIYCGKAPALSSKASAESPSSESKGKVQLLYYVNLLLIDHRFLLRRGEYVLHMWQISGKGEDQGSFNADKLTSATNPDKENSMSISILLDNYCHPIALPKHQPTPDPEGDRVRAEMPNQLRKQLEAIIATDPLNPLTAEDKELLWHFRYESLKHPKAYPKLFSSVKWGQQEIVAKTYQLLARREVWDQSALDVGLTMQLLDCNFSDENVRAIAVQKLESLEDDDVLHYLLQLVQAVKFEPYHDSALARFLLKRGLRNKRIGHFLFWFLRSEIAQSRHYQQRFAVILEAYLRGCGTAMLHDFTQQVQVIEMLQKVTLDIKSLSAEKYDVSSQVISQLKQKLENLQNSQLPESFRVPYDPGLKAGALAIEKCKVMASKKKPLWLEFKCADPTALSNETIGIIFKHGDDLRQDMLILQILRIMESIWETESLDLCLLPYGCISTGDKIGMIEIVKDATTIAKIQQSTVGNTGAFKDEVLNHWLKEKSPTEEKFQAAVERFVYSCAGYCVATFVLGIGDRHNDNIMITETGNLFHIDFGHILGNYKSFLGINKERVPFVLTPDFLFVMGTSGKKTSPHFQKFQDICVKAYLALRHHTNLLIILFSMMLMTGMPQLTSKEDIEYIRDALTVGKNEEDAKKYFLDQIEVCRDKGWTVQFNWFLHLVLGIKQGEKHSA

[3] = target: Phosphatidylinositol 4,5-bisphosphate 3-kinase catalytic subunit alpha isoform (Homo sapiens, UniProt P42336); experiment: Inhibition of human PI3Kalpha using PIP2 as substrate after 1 hr
Chain of Phosphatidylinositol 4,5-bisphosphate 3-kinase catalytic subunit alpha isoform (P42336 whole entry, looked up, canonical isoform): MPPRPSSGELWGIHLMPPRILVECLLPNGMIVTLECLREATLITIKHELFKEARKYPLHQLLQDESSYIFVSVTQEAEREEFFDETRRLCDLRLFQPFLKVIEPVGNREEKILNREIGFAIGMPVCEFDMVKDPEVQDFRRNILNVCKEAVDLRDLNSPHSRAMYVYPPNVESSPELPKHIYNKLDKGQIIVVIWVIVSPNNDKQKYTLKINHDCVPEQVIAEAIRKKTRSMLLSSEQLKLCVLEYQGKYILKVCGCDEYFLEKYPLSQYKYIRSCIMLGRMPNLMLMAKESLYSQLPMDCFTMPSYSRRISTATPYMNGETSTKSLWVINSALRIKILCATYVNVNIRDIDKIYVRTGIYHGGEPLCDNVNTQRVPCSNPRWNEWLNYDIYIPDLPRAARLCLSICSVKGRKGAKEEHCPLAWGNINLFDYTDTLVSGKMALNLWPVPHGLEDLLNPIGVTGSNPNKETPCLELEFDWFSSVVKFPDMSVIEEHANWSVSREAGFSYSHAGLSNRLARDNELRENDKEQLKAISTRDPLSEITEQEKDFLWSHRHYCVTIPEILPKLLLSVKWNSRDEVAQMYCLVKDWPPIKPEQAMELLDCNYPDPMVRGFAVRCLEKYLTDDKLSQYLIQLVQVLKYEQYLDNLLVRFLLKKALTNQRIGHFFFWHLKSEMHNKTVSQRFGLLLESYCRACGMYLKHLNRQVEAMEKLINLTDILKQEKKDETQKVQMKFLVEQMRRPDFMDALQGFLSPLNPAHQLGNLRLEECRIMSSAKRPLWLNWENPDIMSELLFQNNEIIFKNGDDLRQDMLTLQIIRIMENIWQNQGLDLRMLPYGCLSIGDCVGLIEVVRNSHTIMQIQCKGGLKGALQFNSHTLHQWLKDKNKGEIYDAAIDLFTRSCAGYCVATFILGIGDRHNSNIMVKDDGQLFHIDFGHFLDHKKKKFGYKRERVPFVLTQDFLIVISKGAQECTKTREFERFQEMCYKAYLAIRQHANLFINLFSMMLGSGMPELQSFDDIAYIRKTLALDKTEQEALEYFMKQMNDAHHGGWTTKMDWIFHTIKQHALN

[4] = target: Phosphatidylinositol 4,5-bisphosphate 3-kinase catalytic subunit beta isoform (Homo sapiens, UniProt P42338); experiment: Inhibition of human PI3Kbeta using PIP2 as substrate after 1 hr
Chain of Phosphatidylinositol 4,5-bisphosphate 3-kinase catalytic subunit beta isoform (P42338 whole entry, canonical isoform): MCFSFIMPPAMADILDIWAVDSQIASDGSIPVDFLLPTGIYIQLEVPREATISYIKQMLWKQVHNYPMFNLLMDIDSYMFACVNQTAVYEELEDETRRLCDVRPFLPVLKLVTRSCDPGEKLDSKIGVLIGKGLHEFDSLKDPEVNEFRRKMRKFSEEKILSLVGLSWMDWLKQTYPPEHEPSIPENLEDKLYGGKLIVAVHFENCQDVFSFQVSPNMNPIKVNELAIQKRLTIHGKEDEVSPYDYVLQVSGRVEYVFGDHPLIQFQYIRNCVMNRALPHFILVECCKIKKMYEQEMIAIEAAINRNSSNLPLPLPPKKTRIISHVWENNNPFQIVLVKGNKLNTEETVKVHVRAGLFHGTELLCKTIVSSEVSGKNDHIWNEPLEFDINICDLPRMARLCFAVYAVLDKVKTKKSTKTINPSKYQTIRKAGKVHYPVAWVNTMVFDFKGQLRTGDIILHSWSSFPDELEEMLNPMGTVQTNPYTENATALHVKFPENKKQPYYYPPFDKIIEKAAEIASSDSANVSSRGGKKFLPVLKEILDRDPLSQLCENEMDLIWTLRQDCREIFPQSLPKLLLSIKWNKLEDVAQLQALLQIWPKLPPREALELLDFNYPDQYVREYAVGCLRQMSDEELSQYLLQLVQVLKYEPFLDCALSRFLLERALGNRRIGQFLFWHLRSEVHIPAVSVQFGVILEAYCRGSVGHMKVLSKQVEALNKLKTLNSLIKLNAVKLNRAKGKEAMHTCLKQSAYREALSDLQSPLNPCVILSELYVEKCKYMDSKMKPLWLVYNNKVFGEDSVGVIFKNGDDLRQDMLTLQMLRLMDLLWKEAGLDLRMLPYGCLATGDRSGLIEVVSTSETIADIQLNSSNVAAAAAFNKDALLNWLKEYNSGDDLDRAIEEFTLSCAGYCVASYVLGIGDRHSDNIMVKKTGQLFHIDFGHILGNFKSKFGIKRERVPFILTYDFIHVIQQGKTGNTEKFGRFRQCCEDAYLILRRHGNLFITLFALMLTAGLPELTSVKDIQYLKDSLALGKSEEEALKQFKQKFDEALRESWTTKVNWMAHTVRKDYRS

[5] = target: Serine/threonine-protein kinase mTOR (Homo sapiens, UniProt P42345); experiment: Inhibition of mTOR (unknown origin) assessed as reduction in p70S6K phosphorylation
TMD8 = experiment: Antiproliferative activity against human TMD8 cells; assay type: functional, cell-based

Row | SMILES | IC50 [1] [nM] | IC50 [2] [nM] | IC50 [3] [nM] | IC50 [4] [nM] | IC50 [5] [nM] | IC50 (TMD8) [nM]
1 | COc1ccc(Cn2c(=O)n(C)c3c4cc(-c5cccnc5)ccc4ncc32)cc1 | 20 |  |  |  |  | 
2 | COc1ccc(Cn2c(=O)n(C)c3cnc4ccc(-c5cnc(OC)c(NS(C)(=O)=O)c5)cc4c32)cc1 | 4.1 | 42 | 289 | 241 | 580 | 
3 | CC[C@H](Nc1ncnc2[nH]cnc12)c1nc2cccc(F)c2c(=O)n1-c1ccccc1 [IDELALISIB] |  |  |  |  | > 1000 | 795
